Assay results: US20150045610A1, “METHOD OF MODIFYING SPERMATOGENESIS, SPERMIOGENESIS AND/OR FERTILITY IN MAMMALS” (Monell Chemical Senses Center, priority 2012, published 2015)

Target: T1, humanized mhT1R3 (Homo sapiens, UniProt Q7RTX0, A109T/A120V/A176D/A197V/A198V/A228S/A231N/A248T/A280V/A282S/A302S/A412V/A417V/A46T/A537T/C375D/D124S/D249S/D250G/D364H/D419E/D470T/D491G/D88A/DEL352-352/DEL488-489/E172D/E199T/E203N/E217D/E356N/E45S/E481Q/E505D/E525K/E545Q/F540P/F555L/G168S/G205S/G311T/G314N/G355L/G360D/G414H/G438R/G439D/G463S/G50T/G542N/H261R/H278R/H281Y/H332P/I485M/I536F/INS376MLQNLSSG/K32Q/K339E/K422L/K494V/K86G/L173R/L245Q/L272V/L29F/L354S/L385Q/L433M/L458M/L483S/L71F/L74M/M151L/M315I/M318V/M31A/N285S/N386L/N532H/N68L/P112S/P246H/P335S/P416H/P420H/P441T/P60I/Q221E/Q257L/Q317R/Q330L/Q336H/Q359L/Q372R/Q418S/Q504K/Q531K/R123Q/R247D/R252Q/R291G/R30K/R357A/R443Q/R467V/R473T/R479Q/R482Q/R486Y/R498Q/R52N/R550K/R553A/R556P/R560K/R56Q/S251Q/S267K/S289H/S290H/S392A/S446A/S447E/S464P/S477T/S490P/S53Q/S559P/S58N/S67P/T195Q/T346A/T377L/T390I/T434S/T480L/T63N/V152I/V277A/V366M/V36I/V381L/V393T/V437A/V465T/V61P/W72L)
T1 construct: the extracellular domain is of mouse origin and the transmembrane and intracellular domains of human origin; mouse T1R3 extracellular domain (fusion partner replacing the human extracellular domain); expressed in transfected cells; host or cells: transgenic mice (Line 7, 9, 7c) on T1R3-null background; transgene under 13 kb T1R3 promoter, followed by IRES-eGFP
T1 sequence (Q7RTX0 with tags, fused parts or gaps L29F/R30K/M31A/K32Q/V36I/E45S/A46T/G50T/R52N/S53Q/R56Q/S58N/P60I/V61P/T63N/S67P/N68L/L71F/W72L/L74M/K86G/D88A/A109T/P112S/A120V/R123Q/D124S/M151L/V152I/G168S/E172D/L173R/A176D/T195Q/A197V/A198V/E199T/E203N/G205S/E217D/Q221E/A228S/A231N/L245Q/P246H/R247D/A248T/D249S/D250G/S251Q/R252Q/Q257L/H261R/S267K/L272V/V277A/H278R/A280V/H281Y/A282S/N285S/S289H/S290H/R291G/A302S/G311T/G314N/M315I/Q317R/M318V/Q330L/H332P/P335S/Q336H/K339E/T346A/DEL352-352/L354S/G355L/E356N/R357A/Q359L/G360D/D364H/V366M/Q372R/C375D/INS376MLQNLSSG/T377L/V381L/L385Q/N386L/T390I/S392A/V393T/A412V/G414H/P416H/A417V/Q418S/D419E/P420H/K422L/L433M/T434S/V437A/G438R/G439D/P441T/R443Q/S446A/S447E/L458M/G463S/S464P/V465T/R467V/D470T/R473T/S477T/R479Q/T480L/E481Q/R482Q/L483S/I485M/R486Y/DEL488-489/S490P/D491G/K494V/R498Q/Q504K/E505D/E525K/Q531K/N532H/I536F/A537T/F540P/G542N/E545Q/R550K/R553A/F555L/R556P/S559P/R560K limits assumed): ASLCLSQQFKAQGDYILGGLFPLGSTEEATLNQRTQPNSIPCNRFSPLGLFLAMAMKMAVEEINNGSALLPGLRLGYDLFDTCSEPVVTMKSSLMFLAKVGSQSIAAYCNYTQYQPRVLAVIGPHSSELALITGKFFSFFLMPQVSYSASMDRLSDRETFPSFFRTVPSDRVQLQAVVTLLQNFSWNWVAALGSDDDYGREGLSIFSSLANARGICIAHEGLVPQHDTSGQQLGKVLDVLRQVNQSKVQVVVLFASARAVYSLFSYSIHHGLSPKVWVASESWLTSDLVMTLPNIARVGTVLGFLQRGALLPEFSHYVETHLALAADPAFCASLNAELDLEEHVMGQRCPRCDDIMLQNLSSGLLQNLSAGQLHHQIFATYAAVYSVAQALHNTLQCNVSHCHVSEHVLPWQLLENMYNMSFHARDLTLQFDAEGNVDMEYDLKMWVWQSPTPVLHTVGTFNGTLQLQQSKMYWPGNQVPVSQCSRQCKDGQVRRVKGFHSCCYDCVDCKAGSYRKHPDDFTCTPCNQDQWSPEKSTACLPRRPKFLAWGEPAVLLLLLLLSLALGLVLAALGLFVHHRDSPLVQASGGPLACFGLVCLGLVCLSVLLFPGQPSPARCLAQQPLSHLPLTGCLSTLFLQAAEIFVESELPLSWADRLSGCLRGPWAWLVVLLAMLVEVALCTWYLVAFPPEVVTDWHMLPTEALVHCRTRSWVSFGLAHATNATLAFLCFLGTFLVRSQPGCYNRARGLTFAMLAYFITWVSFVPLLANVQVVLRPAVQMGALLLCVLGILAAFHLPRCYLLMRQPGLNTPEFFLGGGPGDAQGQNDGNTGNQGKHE
T1 sequence (Q925I4 20-843 partner): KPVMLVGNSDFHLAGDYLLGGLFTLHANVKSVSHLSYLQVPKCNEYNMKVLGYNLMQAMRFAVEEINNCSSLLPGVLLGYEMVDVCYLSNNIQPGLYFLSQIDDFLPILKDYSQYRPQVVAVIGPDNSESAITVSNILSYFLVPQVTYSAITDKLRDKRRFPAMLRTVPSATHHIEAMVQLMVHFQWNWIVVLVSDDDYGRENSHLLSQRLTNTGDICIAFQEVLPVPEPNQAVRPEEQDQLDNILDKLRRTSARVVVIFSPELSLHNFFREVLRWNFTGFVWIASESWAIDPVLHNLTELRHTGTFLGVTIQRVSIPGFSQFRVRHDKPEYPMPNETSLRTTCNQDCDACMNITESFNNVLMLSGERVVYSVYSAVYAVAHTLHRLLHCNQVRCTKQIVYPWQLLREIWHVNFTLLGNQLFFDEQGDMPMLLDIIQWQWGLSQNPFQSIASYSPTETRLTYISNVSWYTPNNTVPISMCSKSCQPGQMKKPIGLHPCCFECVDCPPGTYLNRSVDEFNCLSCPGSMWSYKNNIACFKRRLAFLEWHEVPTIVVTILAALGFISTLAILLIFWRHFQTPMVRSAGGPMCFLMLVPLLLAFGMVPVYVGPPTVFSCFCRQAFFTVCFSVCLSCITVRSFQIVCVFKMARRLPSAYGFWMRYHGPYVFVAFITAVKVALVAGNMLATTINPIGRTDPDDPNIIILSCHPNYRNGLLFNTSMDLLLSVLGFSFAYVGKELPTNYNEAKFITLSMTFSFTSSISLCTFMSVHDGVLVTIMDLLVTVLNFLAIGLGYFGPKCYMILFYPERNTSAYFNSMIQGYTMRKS
Assay: sweet taste preference of transgenic mice expressing humanized T1R3
Assay type: in vivo, mouse
Protocol: We used the chimeric mhT1R3 receptor to produce conventional transgenic animals. The DNA construct was injected into a genetically engineered mouse line that lacks endogenous T1R3 (T1R3KO or T1R3-null). […] We call these mice Line7.
For further crosses, we used the line 7 that has fewer copies of the transgene.
Such compounds may be produced normally in organs (e.g. in testis) or chemically synthesized.

## CC(C)(Oc1ccc(Cl)cc1)C(=O)O [clofibric acid]
1 mM clofibric acid
  sweet preference of Line 7 mice: blocked
Lines 7, 9, 7c expressing humanized receptor
  sweet responses of the transgenic animals: completely blocked
